Molecular target: T1, yCPT1 (cholinephosphotransferase) (Saccharomyces cerevisiae, UniProt P17898)
T1 sequence (P17898 1-393): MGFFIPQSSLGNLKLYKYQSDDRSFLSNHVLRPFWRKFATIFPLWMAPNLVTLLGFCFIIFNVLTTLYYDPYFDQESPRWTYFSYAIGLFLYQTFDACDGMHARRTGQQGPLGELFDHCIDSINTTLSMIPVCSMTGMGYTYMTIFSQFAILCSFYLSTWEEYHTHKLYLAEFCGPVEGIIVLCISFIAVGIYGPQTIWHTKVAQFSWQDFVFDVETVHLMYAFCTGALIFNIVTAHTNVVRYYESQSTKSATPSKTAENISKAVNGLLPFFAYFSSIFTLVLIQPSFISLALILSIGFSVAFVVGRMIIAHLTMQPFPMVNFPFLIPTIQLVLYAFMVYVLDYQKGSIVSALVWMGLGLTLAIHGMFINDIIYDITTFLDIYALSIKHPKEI
Assay: cryo-EM structure
Format: biochemical

Work on COc1ccc2c(c[n+](C)c3c4cc5c(cc4ccc23)OCO5)c1OC [chelerythrine] yielded an IC50 of 443 nM.
